Experimental data taken from patent US8299089B2, “Multi-arm polymeric conjugates of 7-ethyl-10-hydroxycamptothecin for treatment of breast, colorectal, pancreatic, ovarian and lung cancers” (priority 2006, dated 2012).

Key:
Colo 205 = experiment: In vitro cytotoxicity, MTS assay, Colo 205; type: cell-based
Procedure: (§1) In Table 2, the cytotoxicity (μM of each compound that results in an IC50) provides an indication of the in vitro anti-tumor potency of each compound. This study was used to determine the effect of PEGylation of four-arm PEGylated 7-ethyl-10-hydroxycamptothecin conjugates. […] Cells were incubated with drugs for 72 hours at 37° C. Following incubation, MTS dye was added and formation of a colored product (formazan) was measured at 490 nm.

HT29 = experiment: In vitro cytotoxicity, MTS assay, HT29; type: cell-based
Procedure: as §1

A549 = experiment: In vitro cytotoxicity, MTS assay, A549; type: cell-based
Procedure: as §1

OVCAR-3 = experiment: In vitro cytotoxicity, MTS assay, OVCAR-3; type: cell-based
Procedure: as §1

[1] = test system: human mammary carcinoma (MX-1); experiment: Multiple dose efficacy in MX-1 breast tumor xenograft mouse model; type: in vivo, nude mice; conditions: i.v. 5 mg/kg/dose (q2d×6), day 31
Procedure: The mice were dosed 5 mg/kg/day […] (every 2 days [q×2d]×6). Mouse weight and tumor sizes were monitored up to the 31st day after the first dose administration and subsequent administrations.

[2] = Solubility in aqueous saline solution; type: physicochemical
[3] = Hydrolysis / 7-ethyl-10-hydroxycamptothecin release in human plasma; type: in vitro ADME
Excerpt: The aqueous stability and hydrolysis properties in rat and human plasma were monitored using UV based HPLC methods.

[4] = 7-ethyl-10-hydroxycamptothecin release in mouse plasma; type: in vitro ADME; conditions: 7-ethyl-10-hydroxycamptothecin formation rate from conjugates
[5] = 7-ethyl-10-hydroxycamptothecin release in rat plasma; type: in vitro ADME; conditions: 7-ethyl-10-hydroxycamptothecin formation rate from conjugates
PANC-1 = experiment: In vitro cytotoxicity, MTS assay, PANC-1; type: cell-based; conditions: Table 2; PANC-1, 72 hours; Compound 9 in 7-ethyl-10-hydroxycamptothecin equivalents; average ± SD (n = 3)
Procedure: as §1

MIA PaCa-2 = experiment: In vitro cytotoxicity, MTS assay, MIA PaCa-2; type: cell-based; conditions: Table 2; MIA PaCa-2, 72 hours; Compound 9 in 7-ethyl-10-hydroxycamptothecin equivalents; no SD = average of two replicates
Procedure: as §1

ASPC-1 = experiment: In vitro cytotoxicity, MTS assay, ASPC-1; type: cell-based; conditions: Table 2; ASPC-1, 72 hours; Compound 9 in 7-ethyl-10-hydroxycamptothecin equivalents; average ± SD (n = 3)
Procedure: as §1

BxPC-3 = experiment: In vitro cytotoxicity, MTS assay, BxPC-3; type: cell-based; conditions: Table 2; BxPC-3, 72 hours; Compound 9 in 7-ethyl-10-hydroxycamptothecin equivalents; average ± SD (n = 3)
Procedure: as §1

OV90 = experiment: In vitro cytotoxicity, MTS assay, OV90; type: cell-based; conditions: Table 2; OV90, 72 hours; Compound 9 in 7-ethyl-10-hydroxycamptothecin equivalents; average ± SD (n = 3)
Procedure: as §1

OVCAR-8 = experiment: In vitro cytotoxicity, MTS assay, OVCAR-8; type: cell-based; conditions: Table 2; OVCAR-8, 72 hours; Compound 9 in 7-ethyl-10-hydroxycamptothecin equivalents; average ± SD (n = 3)
Procedure: as §1

A2780 = experiment: In vitro cytotoxicity, MTS assay, A2780; type: cell-based; conditions: Table 2; A2780, 72 hours; Compound 9 in 7-ethyl-10-hydroxycamptothecin equivalents; average ± SD (n = 3)
Procedure: as §1

SK-0V-3 = experiment: In vitro cytotoxicity, MTS assay, SK-0V-3; type: cell-based; conditions: Table 2; SK-0V-3, 72 hours; Compound 9 in 7-ethyl-10-hydroxycamptothecin equivalents; average ± SD (n = 3)
Procedure: as §1

Compound: ^40k4arm-PEG-Met-(20)-(7-ethyl-10-hydroxycamptothecin) [Compound 18]
- IC50 (Colo 205; Table 3, Colo 205 (colorectal)): 30 nM
- IC50 (HT29; Table 3, HT29 (colorectal)): 140 nM
- IC50 (A549; Table 3, A549 (lung)): 1600 nM
- IC50 (OVCAR-3; Table 3, OVCAR-3 (ovarian)): 130 nM
- Chg in TV ± SD [1]: −94 ± 7%
- Cures [1]: 100%
- F/I [1]: 7.8%
- Mean TV ± SD [1]: 8 ± 9 mm^3
- Median TV [1]: 5.6 mm^3
- Regressions [1]: 100%
- Survival [1]: 100%
- T/C [1]: 0.7%
- TGI [1]: 99%
- Solubility in Saline [2]: 142 mg/mL
- Doubling Time in Plasma, Human ([3]; 7-ethyl-10-hydroxycamptothecin formation rate from conjugates): 22.2 min
- t1/2 in Human Plasma ([3]; PEG conjugate half life): 26.8 min
- Doubling Time in Plasma, Mouse [4]: 41.9 min
- Doubling Time in Plasma, Rat [5]: 1920 min

Compound: CCc1c2c(nc3ccc(O)cc13)-c1cc3c(c(=O)n1C2)COC(=O)[C@]3(O)CC [7-ethyl-10-hydroxycamptothecin]
- IC50 (Colo 205; Table 2, Colo 205, 72 hours, Compound 9 in 7-ethyl-10-hydroxycamptothecin equivalents, average ± SD (n = 3)): 200 ± 200 nM
- IC50 (Colo 205; Table 3, Colo 205 (colorectal)): 80 nM
- IC50 (HT29; Table 2, HT29, 72 hours, Compound 9 in 7-ethyl-10-hydroxycamptothecin equivalents, average ± SD (n = 3)): 100 ± 40 nM
- IC50 (HT29; Table 3, HT29 (colorectal)): 80 nM
- IC50 (A549; Table 2, A549, 72 hours, Compound 9 in 7-ethyl-10-hydroxycamptothecin equivalents, average ± SD (n = 3)): 1000 ± 100 nM
- IC50 (PANC-1): 560 ± 380 nM
- IC50 (MIA PaCa-2): 180 nM
- IC50 (ASPC-1): 640 ± 130 nM
- IC50 (BxPC-3): 540 ± 580 nM
- IC50 (OVCAR-3; Table 2, OVCAR-3, 72 hours, Compound 9 in 7-ethyl-10-hydroxycamptothecin equivalents, average ± SD (n = 3)): 100 ± 20 nM
- IC50 (OV90): 100 ± 20 nM
- IC50 (OVCAR-8): 30 ± 10 nM
- IC50 (A2780): 20 ± 10 nM
- IC50 (SK-0V-3): 200 ± 100 nM
- Solubility in Saline [2]: ^a7-ethyl-10-hydroxycamptothecin is not soluble in saline.
